Data published in US10251889B2, “Substituted pyrazolo[1,5-a]pyrimidine compounds as Trk kinase inhibitors” (Array BioPharma, Inc., priority 2009, dated 2019).

These compounds were tested against Jak2 (human Jak2 kinase domain, amino acids 808-1132) (Homo sapiens (Human), UniProt O60674) (assay: Jak2 inhibition assay (Omnia kinase assay)). Conditions: read-out: Jak2 Enzyme (% inhibition at 1000 nM), Table 1; 1000 nM test compound.
Assay type: biochemical

Sequence of Jak2 (human Jak2 kinase domain, amino acids 808-1132) (O60674 808-1132): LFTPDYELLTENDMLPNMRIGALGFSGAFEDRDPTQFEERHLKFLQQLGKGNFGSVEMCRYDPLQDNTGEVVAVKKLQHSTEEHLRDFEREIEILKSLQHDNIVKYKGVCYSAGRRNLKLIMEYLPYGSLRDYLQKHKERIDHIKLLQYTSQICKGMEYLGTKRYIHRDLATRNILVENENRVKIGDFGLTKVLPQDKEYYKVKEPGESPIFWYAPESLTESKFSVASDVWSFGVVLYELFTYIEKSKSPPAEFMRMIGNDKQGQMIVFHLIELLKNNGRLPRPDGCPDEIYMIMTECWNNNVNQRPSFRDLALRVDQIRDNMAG

| Compound | inhibition at 1 µM |
| --- | --- |
| O=C(NC1CCC1)c1cnn2ccc(N3CCC[C@@H]3c3cncc(F)c3)nc12 [Example 101, (R)-N-cyclobutyl-5-(2-(5-fluoropyridin-3-yl)pyrrolidin-1-yl)pyrazolo[1,5-a]pyrimidine-3-carboxamide] | 26.2% |
| CC1(NC(=O)c2cnn3ccc(N4CCC[C@@H]4c4cncc(F)c4)nc23)CCC1 [Example 102, (R)-5-(2-(5-fluoropyridin-3-yl)pyrrolidin-1-yl)-N-(1-methylcyclobutyl)pyrazolo[1,5-a]pyrimidine-3-carboxamide] | 17.3% |
| O=C(N[C@H]1CCC[C@@H]1O)c1cnn2ccc(N3CCC[C@@H]3c3cncc(F)c3)nc12 [Example 103, 5-((R)-2-(5-fluoropyridin-3-yl)pyrrolidin-1-yl)-N-((1S,2S)-2-hydroxycyclopentyl)pyrazolo[1,5-a]pyrimidine-3-carboxamide] | 4.5% |
| O=C(N[C@H]1CCC[C@H]1O)c1cnn2ccc(N3CCC[C@@H]3c3cncc(F)c3)nc12 [Example 104, 5-((R)-2-(5-fluoropyridin-3-yl)pyrrolidin-1-yl)-N-((1S,2R)-2-hydroxycyclopentyl)pyrazolo[1,5-a]pyrimidine-3-carboxamide] | 6.1% |
| O=C(N[C@H]1CC[C@H](O)C1)c1cnn2ccc(N3CCC[C@@H]3c3cncc(F)c3)nc12 [Example 105, 5-((R)-2-(5-fluoropyridin-3-yl)pyrrolidin-1-yl)-N-((1S,3S)-3-hydroxycyclopentyl)pyrazolo[1,5-a]pyrimidine-3-carboxamide] | 18.7% |
| O=C(NC1(CO)CC1)c1cnn2ccc(N3CCC[C@@H]3c3cncc(F)c3)nc12 [Example 107, (R)-5-(2-(5-fluoropyridin-3-yl)pyrrolidin-1-yl)-N-(1-(hydroxymethyl)cyclopropyl)pyrazolo [1,5-a]pyrimidine-3-carboxamide] | 7.1% |
| O=C(c1cnn2ccc(N3CCC[C@@H]3c3cncc(F)c3)nc12)N1CC(O)C1 [Example 108, (R)-(5-(2-(5-fluoropyridin-3-yl)pyrrolidin-1-yl)pyrazolo[1,5-a]pyrimidin-3-yl)(3-hydroxyazetid-1-yl)methanone] | 2.8% |
| C[C@H](O)CNC(=O)c1cnn2ccc(N3CCC[C@@H]3c3cncc(F)c3)nc12 [Example 109, 5-((R)-2-(5-fluoropyridin-3-yl)pyrrolidin-1-yl)-N-((S)-2-hydroxypropyl)pyrazolo[1,5-a]pyrimidine-3-carboxamide] | -0.3% |
| C[C@@H](O)CNC(=O)c1cnn2ccc(N3CCC[C@@H]3c3cncc(F)c3)nc12 [Example 110, 5-((R)-2-(5-fluoropyridin-3-yl)pyrrolidin-1-yl)-N-((R)-2-hydroxypropyl)pyrazolo[1,5-a]pyrimidine-3-carboxamide] | -0.5% |
| CC(C)(O)CNC(=O)c1cnn2ccc(N3CCC[C@@H]3c3cncc(F)c3)nc12 [Example 111, (R)-5-(2-(5-fluoropyridin-3-yl)pyrrolidin-1-yl)-N-(2-hydroxy-2-methylpropyl)pyrazolo[1,5-a]pyrimidine-3-carboxamide] | 0.1% |
| O=C(NCCO)c1cnn2ccc(N3CCC[C@@H]3c3cncc(F)c3)nc12 [Example 112, (R)-5-(2-(5-fluoropyridin-3-yl)pyrrolidin-1-yl)-N-(2-hydroxyethyl)pyrazolo[1,5-a]pyrimidine-3-carboxamide] | 3.2% |
| CC(NC(=O)c1cnn2ccc(N3CCCC3c3cncc(F)c3)nc12)C1CC1 [Example 113, N-(1-cyclopropylethyl)-5-((R)-2-(5-fluoropyridin-3-yl)pyrrolidin-1-yl)pyrazolo[1,5-a]pyrimidine-3-carboxamide] | 44.6% |
| C[C@H](CO)NC(=O)c1cnn2ccc(N3CCC[C@@H]3c3cncc(F)c3)nc12 [Example 115, 5-((R)-2-(5-fluoropyridin-3-yl)pyrrolidin-1-yl)-N-((R)-1-hydroxypropan-2-yl)pyrazolo[1,5-a]pyrimidine-3-carboxamide] | 12.6% |
| C[C@@H](CO)NC(=O)c1cnn2ccc(N3CCC[C@@H]3c3cncc(F)c3)nc12 [Example 116, 5-((R)-2-(5-fluoropyridin-3-yl)pyrrolidin-1-yl)-N-((S)-1-hydroxypropan-2-yl)pyrazolo[1,5-a]pyrimidine-3-carboxamide] | 4.7% |
| NC(=O)c1cnn2ccc(N3CCC[C@@H]3c3cncc(F)c3)nc12 [Example 117, (R)-5-(2-(5-fluoropyridin-3-yl)pyrrolidin-1-yl)pyrazolo[1,5-a]pyrimidine-3-carboxamide] | -1.4% |
| COCC(C)NC(=O)c1cnn2ccc(N3CCCC3c3cncc(F)c3)nc12 [Example 118, 5-((R)-2-(5-fluoropyridin-3-yl)pyrrolidin-1-yl)-N-(1-methoxypropan-2-yl)pyrazolo[1,5-a]pyrimidine-3-carboxamide] | -4.5% |
| COCC(O)CNC(=O)c1cnn2ccc(N3CCCC3c3cncc(F)c3)nc12 [Example 119, 5-((R)-2-(5-fluoropyridin-3-yl)pyrrolidin-1-yl)-N-(2-hydroxy-3-methoxypropyl)pyrazolo[1,5-a]pyrimidine-3-carboxamide] | 1.7% |
| O=C(NC1CCC[C@@H]1O)c1cnn2ccc(N3CCCC3c3cncc(F)c3)nc12 (stereo partly drawn) [Example 120, 5-((R)-2-(5-fluoropyridin-3-yl)pyrrolidin-1-yl)-N-((trans)-2-hydroxycyclopentyl)pyrazolo[1,5-a]pyrimidine-3-carboxamide] | 2.3% |
| CC(C)[C@@H](CO)NC(=O)c1cnn2ccc(N3CCC[C@@H]3c3cncc(F)c3)nc12 [Example 121, 5-((R)-2-(5-fluoropyridin-3-yl)pyrrolidin-1-yl)-N-((S)-1-hydroxy-3-methylbutan-2-yl)pyrazolo[1,5-a]pyrimidine-3-carboxamide] | 3.7% |
| CC(C)[C@H](CO)NC(=O)c1cnn2ccc(N3CCC[C@@H]3c3cncc(F)c3)nc12 [Example 122, 5-((R)-2-(5-fluoropyridin-3-yl)pyrrolidin-1-yl)-N-((R)-1-hydroxy-3-methylbutan-2-yl)pyrazolo[1,5-a]pyrimidine-3-carboxamide] | 7.4% |
| CC(C)(CO)CNC(=O)c1cnn2ccc(N3CCC[C@@H]3c3cncc(F)c3)nc12 [Example 125, (R)-5-(2-(5-fluoropyridin-3-yl)pyrrolidin-1-yl)-N-(3-hydroxy-2,2-dimethylpropyl)pyrazolo[1,5-a]pyrimidine-3-carboxamide] | 6.1% |
| O=C(c1cnn2ccc(N3CCC[C@@H]3c3cncc(F)c3)nc12)N1CCC1 [Example 126, (R)-azetidin-1-yl(5-(2-(5-fluoropyridin-3-yl)pyrrolidin-1-yl)pyrazolo[1,5-a]pyrimidin-3-yl)methanone] | -1% |
| O=C(c1cnn2ccc(N3CCC[C@@H]3c3cncc(F)c3)nc12)N1CC(CO)C1 [Example 127, (R)-(5-(2-(5-fluoropyridin-3-yl)pyrrolidin-1-yl)pyrazolo[1,5-a]pyrimidin-3-yl)(3-(hydroxymethyl)azetidin-1-yl)methanone] | 0.2% |
| O=C(c1cnn2ccc(N3CCC[C@@H]3c3cncc(F)c3)nc12)N1CC[C@H](O)C1 [Example 128, (5-((R)-2-(5-fluoropyridin-3-yl)pyrrolidin-1-yl)pyrazolo[1,5-a]pyrimidin-3-yl)((S)-3-hydroxypyrrolidin-1-yl)methanone] | 1.2% |
